Values quoted from earlier work in patent US9340307B2, “Stable laquinimod preparations” (priority 2007, dated 2016).

Test system: acute experimental autoimmune encephalomyelitis (aEAE) model
Settings: U.S. Pat. No. 6,077,851

## CCN(C(=O)c1c(O)c2c(Cl)cccc2n(C)c1=O)c1ccccc1 [Laquinimod, N-ethyl-N-phenyl-1,2-dihydro-4-hydroxy-5-chloro-1-methyl-2-oxoquinoline-3-carboxamide]
  effectiveness in the aEAE model: effective
